Measurements: patent US20180305332A1, “Bispiperidinyl Derivatives as Liver X Receptor Beta Agonists, Compositions, and Their Use” (Merck Sharp & Dohme Corp., priority 2015, published 2018)

Legend:
[1] = molecular target: T1, GST tagged LXRbeta LBD (ligand binding domain) (Homo sapiens, UniProt P55055); experiment: LanthaScreen TR-FRET Liver X Receptor Coactivator Assay, LXR beta-LBD; assay type: biochemical; conditions: relative to reference T0901317; for EC50: Inflection Point (potency), co-activator recruitment, read-out: LXR beta IP; for Emax: read-out: LXR beta act @ max dose (%)
T1 construct: purchased Invitrogen pv4658.pps
T1 sequence (P55055 222-460 limits assumed): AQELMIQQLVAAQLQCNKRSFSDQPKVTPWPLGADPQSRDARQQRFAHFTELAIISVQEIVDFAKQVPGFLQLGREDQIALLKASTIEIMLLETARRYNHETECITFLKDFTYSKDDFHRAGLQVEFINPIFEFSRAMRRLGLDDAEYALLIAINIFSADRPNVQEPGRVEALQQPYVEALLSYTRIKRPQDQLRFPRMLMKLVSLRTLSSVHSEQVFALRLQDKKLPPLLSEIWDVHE
Description: (§1) Potency (Inflection Point, IP) and efficacy (Emax) are evaluated via compound-induced co-activator recruitment to glutathione-S-transferase (GST) tagged LXRbeta and LXRalpha LBD (ligand binding domain) proteins in relation to reference dual agonist compound T0901317 (N-(2,2,2-Trifluoroethyl)-N-[4-[2,2,2-trifluoro-1-hydroxy-1-(trifluoromethyl)ethyl] phenyl]benzenesulfonamide) using the LanthaScreen™ TR-FRET Liver X Receptor Coactivator Assays according to manufacturer's instructions (Invitrogen catalog number pv4658.pps and pv4655). While running the LanthaScreen™ TR-FRET Liver X Receptor Coactivator Assay, LXR alpha-LBD or LXR beta-LBD was added to ligand test compounds followed by addition of a mixture of a fluorescein-labelled coactivator peptide and terbium-conjugated anti-GST antibody. After an incubation period at room temperature, TR-FRET (time-resolved fluorescence resonance energy transfer) was measured using a filter-based instrument capable of TR-FRET, e.g. PerkinElmer Envision.

[2] = molecular target: T2, GST tagged LXRalpha LBD (ligand binding domain) (Homo sapiens, UniProt Q13133); experiment: LanthaScreen TR-FRET Liver X Receptor Coactivator Assay, LXR alpha-LBD; assay type: biochemical; conditions: relative to reference T0901317; for LXR alpha IP (nM) / EC50: Inflection Point (potency), co-activator recruitment; for Emax: read-out: LXR alpha act @ max dose (%); for EC50: read-out: LXR alpha IP
T2 construct: purchased Invitrogen pv4655
T2 sequence (Q13133 209-447 limits assumed): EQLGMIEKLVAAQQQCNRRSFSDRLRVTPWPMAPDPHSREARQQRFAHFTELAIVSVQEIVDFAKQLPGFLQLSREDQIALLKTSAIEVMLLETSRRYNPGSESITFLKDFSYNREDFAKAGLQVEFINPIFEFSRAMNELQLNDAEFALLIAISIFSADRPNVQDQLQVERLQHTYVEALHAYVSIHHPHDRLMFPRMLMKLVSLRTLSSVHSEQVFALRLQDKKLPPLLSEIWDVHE
Description: as §1

[3] = activity at max dose (efficacy)

| SMILES | EC50 [1] | Emax [1, 3] | LXR alpha IP (nM) [2] | Emax [2, 3] | EC50 [2] | LXR beta act @ max dose (%) [1, 3] | LXR alpha act @ max dose (%) [2, 3] |
| --- | --- | --- | --- | --- | --- | --- | --- |
| CCC1CCN(C(=O)c2ccc(N3CCC(C4CCN(C(=O)[C@](O)(c5ccccc5)C(F)(F)F)CC4)CC3)cc2Cl)C1 (stereo partly drawn) [Example E-29, (2R)-3-(1′-{3-chloro-4-[(3-ethylpyrrolidin-1-yl)carbonyl]phenyl}-4,4′-bipiperidin-1-yl)-1,1,1-trifluoro-3-oxo-2-phenylpropan-2-ol] | 383 nM | 63% | NO IP | 13% |  |  |  |
| COc1cccc(C2(C(=O)N3CCC(C4CCN(c5ccc(C(=O)N(C)C)c(Cl)c5)CC4)CC3)CCCC2)c1 [Example A-78, 2-chloro-4-(1′-{[1-(3-methoxyphenyl)cyclopentyl]carbonyl}-4,4′-bipiperidin-1-yl)-N,N-dimethylbenzamide] | 210 nM | 81% | NO IP | 15% |  |  |  |
| CN(C)C(=O)c1ccc(N2CCC(C3CCN(C(=O)C(O)(C(F)(F)F)C(F)(F)F)CC3)CC2)nc1Cl [Example B-15, 2-chloro-N,N-dimethyl-6-{1′-[3,3,3-trifluoro-2-hydroxy-2-(trifluoromethyl)propanoyl]-4,4′-bipiperidin-1-yl}pyridine-3-carboxamide] | 34 nM | 121% |  | 87% | 2240 nM |  |  |
| CC(C)C(O)(C(=O)N1CCC(C2CCN(c3ccc(C(=O)N4CCOCC4)c(Cl)c3)CC2)CC1)C(F)(F)F (stereo not drawn) [Example E-8, 2-({1′-[3-chloro-4-(morpholin-4-ylcarbonyl)phenyl]-4,4′-bipiperidin-1-yl}carbonyl)-1,1,1-trifluoro-3-methylbutan-2-ol] | 149 nM | 65% |  | 29% | 1190 nM |  |  |
| CC(C)C(O)(C(=O)N1CCC(C2CCN(c3ccc(C(=O)N(C)C)c(Cl)c3)CC2)CC1)C(C)C [Example A-109, 2-chloro-4-{1′-[2-hydroxy-3-methyl-2-(1-methylethyl)butanoyl]-4,4′-bipiperidin-1-yl}-N,N-dimethylbenzamide] | 61 nM | 98% |  | 22% | 54200 nM |  |  |
| CN(C)C(=O)c1ccc(N2CCC(C3CCN(C(=O)C4(c5ccccc5Cl)CC4)CC3)CC2)cc1Cl [Example A-86, 2-chloro-4-(1′-{[1-(2-chlorophenyl)cyclopropyl]carbonyl}-4,4′-bipiperidin-1-yl)-N,N-dimethylbenzamide] | 16 nM | 112% |  | 73% | 671 nM |  |  |
| CN(C)C(=O)c1ccc(N2CCC(C3CCN(C(=O)[C@](O)(c4ccccc4)C(F)(F)C(F)(F)F)CC3)CC2)cc1Cl (single isomer, unassigned) [Example A-20] | 35 nM | 146% |  | 0% | 625 nM |  |  |
| CC(C)C(O)(C(=O)N1CCC(C2CCN(c3ccc(C(=O)N4CC(F)(F)C4)c(Cl)c3)CC2)CC1)C(F)(F)F (stereo not drawn) [Example E-3, 2-[(1′-{3-chloro-4-[(3,3-difluoroazetidin-1-yl)carbonyl]phenyl}-4,4′-bipiperidin-1-yl)carbonyl]-1,1,1-trifluoro-3-methylbutan-2-ol] | 297 nM | 81% |  | 30% | 127 nM |  |  |
| O=C(c1ccc(N2CCC(C3CCN(C(=O)[C@](O)(c4ccccc4)C(F)(F)F)CC3)CC2)cc1Cl)N1CC(c2cccnc2)C1 [Example E-43, (2R)-3-(1′-{3-chloro-4-[(3-pyridin-3-ylazetidin-1-yl)carbonyl]phenyl}-4,4′-bipiperidin-1-yl)-1,1,1-trifluoro-3-oxo-2-phenylpropan-2-ol] | 355 nM | 50% |  | 24% | 3010 nM |  |  |
| CN(C)C(=O)c1ccc(N2CCC(C3CCN(C(=O)C(O)(c4cccc(F)c4)C(F)(F)F)CC3)CC2)cc1Cl (stereo not drawn) [Example A-95, 2-chloro-N,N-dimethyl-4-{1′-[3,3,3-trifluoro-2-(3-fluorophenyl)-2-hydroxypropanoyl]-4,4′-bipiperidin-1-yl}benzamide] | 84 nM | 116% |  | 38% | 1330 nM |  |  |
| Cc1ccccc1S(=O)(=O)N1CCC(C2CCN(c3ccc(C(=O)N(C)C)c(Cl)c3)CC2)CC1 [Example A-100, 2-chloro-N,N-dimethyl-4-{1′-[(2-methylphenyl)sulfonyl]-4,4′-bipiperidin-1-yl}benzamide] | 140 nM | 121% |  | 48% | 5770 nM |  |  |
| O=C(c1ccc(N2CCC(C3CCN(C(=O)[C@](O)(c4ccccc4)C(F)(F)F)CC3)CC2)cc1Cl)N1CC(O)C1 [Example E-36, 1-[(2-chloro-4-{1′-[(2R)-3,3,3-trifluoro-2-hydroxy-2-phenylpropanoyl]-4,4′-bipiperidin-1-yl}phenyl)carbonyl]azetidin-3-ol] | 453 nM | 74% |  | 23% | 3820 nM |  |  |
| COC1CN(C(=O)c2ccc(N3CCC(C4CCN(C(=O)[C@](O)(c5ccccc5)C(F)(F)F)CC4)CC3)cc2Cl)C1 [Example E-35, (2R)-3-(1′-{3-chloro-4-[(3-methoxyazetidin-1-yl)carbonyl]phenyl}-4,4′-bipiperidin-1-yl)-1,1,1-trifluoro-3-oxo-2-phenylpropan-2-ol] | 364 nM | 57% |  | 19% | 2460 nM |  |  |
| CC(C)CC(O)(C(=O)N1CCC(C2CCN(c3ccc(C(=O)N(C)C)c(Cl)c3)CC2)CC1)C(F)(F)F (stereo not drawn) [Example A-89, 2-chloro-4-{1′-[2-hydroxy-4-methyl-2-(trifluoromethyl)pentanoyl]-4,4′-bipiperidin-1-yl}-N,N-dimethylbenzamide] | 102 nM |  |  |  | 1220 nM | 94% | 36% |
| O=C(c1ccc(N2CCC(C3CCN(C(=O)[C@](O)(c4ccccc4)C(F)(F)C(F)(F)F)CC3)CC2)cc1Cl)N1CCCC1 [Example E-17] | 105 nM | 130% |  | 33% | 760 nM |  |  |
| CN(C)C(=O)c1ccc(N2CCC(C3CCN(C(=O)C4(C(F)(F)F)CCCC4)CC3)CC2)cc1Cl [Example A-28, 2-chloro-N,N-dimethyl-4-(1′-{[1-(trifluoromethyl)cyclopentyl]carbonyl}-4,4′-bipiperidin-1-yl)benzamide] | 173 nM | 123% |  | 73% | 2470 nM |  |  |
| CN(C)C(=O)c1ccc(N2CCC(C3CCN(C(=O)OCc4c(Cl)cccc4Cl)CC3)CC2)cc1Cl [Example A-108, 2,6-dichlorobenzyl 1′-[3-chloro-4-(dimethylcarbamoyl)phenyl]-4,4′-bipiperidine-1-carboxylate] | 8 nM | 131% |  | 74% | 522 nM |  |  |
| CN(C)C(=O)c1ccc(N2CCC(C3CCN(C(=O)C(O)(c4ccccc4)C(F)(F)F)CC3)CC2)nc1Cl (stereo not drawn) [Example B-13, 2-chloro-N,N-dimethyl-6-[1′-(3,3,3-trifluoro-2-hydroxy-2-phenylpropanoyl)-4,4′-bipiperidin-1-yl]pyridine-3-carboxamide] | 291 nM | 95% | NO IP | 28% |  |  |  |
| CN(Cc1ccon1)C(=O)c1ccc(N2CCC(C3CCN(C(=O)c4c(F)cccc4F)CC3)CC2)cc1Cl [Example E-16, 2-chloro-4-{1′-[(2,6-difluorophenyl)carbonyl]-4,4′-bipiperidin-1-yl}-N-(isoxazol-3-ylmethyl)-N-methylbenzamide] | 137 nM | 92% |  | 38% | 1700 nM |  |  |
| Cc1ccccc1C1(C(=O)N2CCC(C3CCN(c4ccc(C(=O)N(C)C)c(Cl)c4)CC3)CC2)CCC1 [Example A-75, 2-chloro-N,N-dimethyl-4-(1′-{[1-(2-methylphenyl)cyclobutyl]carbonyl}-4,4′-bipiperidin-1-yl)benzamide] | 18 nM | 118% |  | 65% | 446 nM |  |  |
| CC(C)N(C)C(=O)c1ccc(N2CCC(C3CCN(C(=O)[C@](O)(c4ccccc4)C(F)(F)F)CC3)CC2)cc1Cl [Example E-33, 2-chloro-N-methyl-N-(1-methylethyl)-4-{1′-[(2R)-3,3,3-trifluoro-2-hydroxy-2-phenylpropanoyl]-4,4′-bipiperidin-1-yl}benzamide] | 71 nM | 95% |  | 24% | 893 nM |  |  |
